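Compound exposure: 48 hours, 5 concentrations, 96-well plates. GI50 is the concentration that inhibits growth by half.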 Calls of active or inactive are those of the source. Cut-off read from the data, not from the text of the source: active = GI50 up to about 1.1 µM and inactive = higher.
How the values were obtained:
Experiment in all cases: NCI-60 cell line screen, 48 h
COLO 205 = test system: COLO 205
SR = test system: SR
CAKI-1 = test system: CAKI-1
Malme-3M = test system: Malme-3M
NCI-H23 = test system: NCI-H23
M19-MEL = test system: M19-MEL
SW-620 = test system: SW-620
M14 = test system: M14
OVCAR-4 = test system: OVCAR-4
RXF 393 = test system: RXF 393
786-0 = test system: 786-0
U-251 = test system: U-251
UACC-62 = test system: UACC-62
HOP-62 = test system: HOP-62
OVCAR-8 = test system: OVCAR-8
KM-20L2 = test system: KM-20L2
HL-60 = test system: HL-60
RPMI-8226 = test system: RPMI-8226
SN12C = test system: SN12C
UO-31 = test system: UO-31
MOLT-4 = test system: MOLT-4
OVCAR-3 = test system: OVCAR-3
HOP-92 = test system: HOP-92
DMS-114 = test system: DMS-114
K562 = test system: K562
SNB-75 = test system: SNB-75
LXFL 529 = test system: LXFL 529
SF-268 = test system: SF-268
NCI-H226 = test system: NCI-H226
LOX IMVI = test system: LOX IMVI
HCT-15 = test system: HCT-15
IGROV-1 = test system: IGROV-1
HCT-116 = test system: HCT-116
NCI-H460 = test system: NCI-H460
TK-10 = test system: TK-10
EKVX = test system: EKVX
OVCAR-5 = test system: OVCAR-5
SF-295 = test system: SF-295
XF498 = test system: XF498
SNB-19 = test system: SNB-19
A549 = test system: A549
SF-539 = test system: SF-539
KM12 = test system: KM12
CCRF-CEM = test system: CCRF-CEM
HOP-18 = test system: HOP-18
A498 = test system: A498
SK-MEL-2 = test system: SK-MEL-2
HT-29 = test system: HT-29
SK-MEL-28 = test system: SK-MEL-28
HCC 2998 = test system: HCC 2998
ACHN = test system: ACHN
UACC-257 = test system: UACC-257
SNB-78 = test system: SNB-78

## CC[C@@H]1C[C@@H]2CN3CCc4c([nH]c5ccc(OC)cc45)C(COC(=O)c4ccc(OC)c(OC)c4)(C2)C13
COLO 205
  GI50: 21.2 µM (inactive)
SR
  GI50: 13.6 µM (inactive)
CAKI-1
  GI50: 19.5 µM (inactive)
Malme-3M
  GI50: > 10 µM (inactive)
NCI-H23
  GI50: 10.3 µM (inactive)
M19-MEL
  GI50: 36 µM (inactive)
SW-620
  GI50: 14.6 µM (inactive)
M14
  GI50: 14.9 µM (inactive)
OVCAR-4
  GI50: 26.4 µM (inactive)
RXF 393
  GI50: 14.2 µM (inactive)
786-0
  GI50: 25.2 µM (inactive)
U-251
  GI50: 16.5 µM (inactive)
UACC-62
  GI50: 13.7 µM (inactive)
HOP-62
  GI50: 22.9 µM (inactive)
OVCAR-8
  GI50: 31.6 µM (inactive)
KM-20L2
  GI50: 15.6 µM (inactive)
HL-60
  GI50: 14.5 µM (inactive)
RPMI-8226
  GI50: 16.1 µM (inactive)
SN12C
  GI50: 17.4 µM (inactive)
UO-31
  GI50: 16.8 µM (inactive)
MOLT-4
  GI50: 11.4 µM (inactive)
OVCAR-3
  GI50: 16.1 µM (inactive)
HOP-92
  GI50: 10 µM (inactive)
DMS-114
  GI50: 11.6 µM (inactive)
K562
  GI50: 7.91 µM (inactive)
SNB-75
  GI50: 24.5 µM (inactive)
LXFL 529
  GI50: 10.6 µM (inactive)
SF-268
  GI50: 33 µM (inactive)
NCI-H226
  GI50: 10.4 µM (inactive)
LOX IMVI
  GI50: 12.7 µM (inactive)
HCT-15
  GI50: 18.4 µM
IGROV-1
  GI50: 20.2 µM (inactive)
HCT-116
  GI50: 4.34 µM (inactive)
NCI-H460
  GI50: 21.3 µM (inactive)
TK-10
  GI50: 32.2 µM (inactive)
EKVX
  GI50: 53.5 µM (inactive)
OVCAR-5
  GI50: 22.6 µM (inactive)
SF-295
  GI50: 19.5 µM (inactive)
XF498
  GI50: 17.3 µM (inactive)
SNB-19
  GI50: 37.6 µM (inactive)
A549
  GI50: 33 µM (inactive)
SF-539
  GI50: 18.8 µM (inactive)
KM12
  GI50: 23.8 µM (inactive)
CCRF-CEM
  GI50: 14.3 µM (inactive)
HOP-18
  GI50: 58.2 µM (inactive)
A498
  GI50: 21 µM (inactive)
SK-MEL-2
  GI50: > 10 µM (inactive)
HT-29
  GI50: 7.82 µM (inactive)
SK-MEL-28
  GI50: 43.3 µM (inactive)
HCC 2998
  GI50: 20.3 µM (inactive)
ACHN
  GI50: 24.4 µM (inactive)
UACC-257
  GI50: 18.3 µM (inactive)
SNB-78
  GI50: 19.6 µM (inactive)
